Among the test systems are SK-MEL-28 melanoma; COLO 205 colon; MDA-N; SNB-75 CNS; MDA-MB-231 breast; HT29 colon; OVCAR-3 ovarian; KM12 colon; MDA-MB-435; OVCAR-8 ovarian.
What all share (test): NCI tumour cell line growth inhibition, 48 h

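Cells were grown in 96-well plates and exposed to each compound for 48 hours at five concentrations; endpoints were interpolated linearly between bracketing concentrations, or set to the highest concentration if not reached. TGI is the concentration that stops growth completely.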

Take `CC(C)C(/C=C/c1ccccc1)=N\NC(=S)NN`: the TGI in the assay on SK-MEL-28 melanoma was more than 100 µM; in the assay with COLO 205 colon, more than 100 µM; with MDA-N, more than 31.6 µM; in the assay with SNB-75 CNS it was more than 100 µM; with MDA-MB-231 breast it was more than 100 µM; with HT29 colon it was more than 100 µM. The TGI in the assay on OVCAR-3 ovarian was more than 88.8 µM; in the assay with KM12 colon it was more than 100 µM; in the assay with MDA-MB-435, more than 100 µM; in the assay on OVCAR-8 ovarian it was more than 100 µM.
Turning to `Cc1ccc(Nc2nc(NS(=O)(=O)c3cc(C)c(Cl)cc3S)n[nH]2)cc1`, the TGI with SK-MEL-28 melanoma, with COLO 205 colon, in the assay on MDA-N, with SNB-75 CNS, with MDA-MB-231 breast and in the assay with HT29 colon was more than 100 µM throughout. Also, the TGI in the assay with OVCAR-3 ovarian, in the assay on KM12 colon, in the assay on MDA-MB-435 and in the assay on OVCAR-8 ovarian was more than 100 µM throughout.
`Cc1ccnc2sc3ccccc3c(=O)c12`: the TGI in the assay with SK-MEL-28 melanoma was more than 100 µM; in the assay on COLO 205 colon it was more than 100 µM; in the assay on MDA-N, more than 100 µM; in the assay on SNB-75 CNS, 63.2 µM; in the assay on MDA-MB-231 breast it was more than 100 µM; with HT29 colon it was 93.3 µM. Also, the TGI in the assay with OVCAR-3 ovarian, with KM12 colon, in the assay on MDA-MB-435 and in the assay on OVCAR-8 ovarian was more than 100 µM in each case.
On to `OCCNc1nc2c(N3CCCC3)nc(N3CCNCC3)nc2nc1NCc1ccccc1`, for which the TGI with SK-MEL-28 melanoma stood at 32.5 µM; in the assay on COLO 205 colon, 24.9 µM; in the assay with MDA-N, 24.7 µM; in the assay with SNB-75 CNS it was 26.8 µM; in the assay with MDA-MB-231 breast it was 29.4 µM; in the assay on HT29 colon it was 21.7 µM. Moreover, the TGI with OVCAR-3 ovarian came to 18.6 µM; in the assay with KM12 colon, 25.5 µM; in the assay on MDA-MB-435 it was 25.1 µM; in the assay on OVCAR-8 ovarian it was 30.5 µM.
Regarding `CC(C)(C)c1cc(C2NC(=O)NC2=O)cc(C(C)(C)C)c1O` (stereo not given), the TGI is more than 100 µM in the assay with SK-MEL-28 melanoma; more than 100 µM in the assay on COLO 205 colon; more than 100 µM in the assay with MDA-N; 84.4 µM in the assay with SNB-75 CNS; more than 100 µM in the assay on MDA-MB-231 breast; more than 100 µM in the assay with HT29 colon. In addition, the TGI was more than 100 µM in the assay on OVCAR-3 ovarian, 48.4 µM with KM12 colon, more than 100 µM in the assay on MDA-MB-435 and more than 100 µM in the assay on OVCAR-8 ovarian.
As for `CCOC(=O)/C=C1/Nc2cc(F)c(F)cc2NC1=O`, the TGI in the assay with SK-MEL-28 melanoma, in the assay with COLO 205 colon, with MDA-N, in the assay with SNB-75 CNS, in the assay with MDA-MB-231 breast and in the assay on HT29 colon was more than 100 µM in each case. In addition, the TGI with OVCAR-3 ovarian, in the assay on KM12 colon, in the assay on MDA-MB-435 and in the assay with OVCAR-8 ovarian was more than 100 µM each time.
In the case of `C=C(COC(=O)C(C)C)[C@H]1Oc2ccc(C(C)=O)cc2[C@@H]1OC(=O)C(C)C`, the TGI in the assay with SK-MEL-28 melanoma, in the assay with COLO 205 colon, with MDA-N, in the assay on SNB-75 CNS, in the assay with MDA-MB-231 breast and in the assay with HT29 colon was more than 100 µM throughout. Moreover, the TGI in the assay with OVCAR-3 ovarian, with KM12 colon, in the assay with MDA-MB-435 and with OVCAR-8 ovarian was more than 100 µM in each case.
With `O=[N+]([O-])c1cc(Cl)ccc1S(=O)(=O)c1cc(Cl)cc2c1NCCC2`, the TGI in the assay on SK-MEL-28 melanoma, in the assay on COLO 205 colon, in the assay with MDA-N, in the assay on SNB-75 CNS, in the assay with MDA-MB-231 breast and in the assay on HT29 colon was more than 100 µM in each case. Also, the TGI with OVCAR-3 ovarian, in the assay on KM12 colon, in the assay with MDA-MB-435 and with OVCAR-8 ovarian was more than 100 µM each time.
With `C1=C[C@]2(CCC13OCCO3)COc1ccccc12`, the TGI was more than 100 µM in the assay on SK-MEL-28 melanoma; more than 100 µM in the assay on COLO 205 colon; more than 100 µM with MDA-N; more than 100 µM in the assay with SNB-75 CNS; more than 100 µM in the assay with MDA-MB-231 breast; 80.4 µM with HT29 colon. Besides, the TGI in the assay with OVCAR-3 ovarian is more than 100 µM; with KM12 colon, 75.5 µM; in the assay on MDA-MB-435, more than 100 µM; in the assay on OVCAR-8 ovarian, more than 100 µM.
On to `S=C1CSc2c(cnc3ccccc23)N1`, for which the TGI with SK-MEL-28 melanoma, with COLO 205 colon, with MDA-N, in the assay with SNB-75 CNS, in the assay with MDA-MB-231 breast and in the assay with HT29 colon was more than 100 µM in each case. In addition, the TGI with OVCAR-3 ovarian, in the assay on KM12 colon, with MDA-MB-435 and with OVCAR-8 ovarian was more than 100 µM in each case.
As to `COc1cc(C2c3cc4c(cc3OC(N3CCOCC3)C2C)OCO4)cc(OC)c1OC(C)=O` (stereo not given), the TGI is more than 91.6 µM in the assay on SK-MEL-28 melanoma; 52 µM with COLO 205 colon; 4.94 µM in the assay with MDA-N; 25.2 µM in the assay on SNB-75 CNS; 99.2 µM in the assay on MDA-MB-231 breast; 57.9 µM with HT29 colon. Further, the TGI in the assay on OVCAR-3 ovarian was 59.4 µM; in the assay on KM12 colon, more than 100 µM; with MDA-MB-435, 14.4 µM; in the assay on OVCAR-8 ovarian it was more than 100 µM.
As to `O=[N+]([O-])c1ccc(-[n+]2ccc3ccccc3c2)c([N+](=O)[O-])c1`, the TGI in the assay on SK-MEL-28 melanoma came out at 8.25 µM; in the assay with COLO 205 colon, 6.29 µM; with MDA-N, 6 µM; in the assay with SNB-75 CNS, 8.74 µM; in the assay on MDA-MB-231 breast, 9.01 µM; in the assay with HT29 colon, 6.5 µM. The TGI in the assay with OVCAR-3 ovarian stood at 6.2 µM; in the assay with KM12 colon it was 27.7 µM; in the assay with MDA-MB-435, 7.07 µM; in the assay with OVCAR-8 ovarian it was 6.74 µM.
For the molecule `c1csc(-c2nnc(C34CC5CC(CC(C5)C3)C4)o2)c1`, the TGI with SK-MEL-28 melanoma was more than 100 µM; with COLO 205 colon, 31.2 µM; in the assay with MDA-N, more than 100 µM; with SNB-75 CNS it was 75.8 µM; in the assay on MDA-MB-231 breast, 45.7 µM; in the assay on HT29 colon, 36.3 µM. The TGI in the assay on OVCAR-3 ovarian was 38.5 µM; with KM12 colon it was more than 100 µM; in the assay on MDA-MB-435 it was more than 100 µM; with OVCAR-8 ovarian, 98.4 µM.
As to `O=C(O)C(CO)NC(=O)C1C(C(=O)O)C(c2ccccc2[N+](=O)[O-])C=C(c2ccco2)N1c1ccncc1` (stereo not given), the TGI with SK-MEL-28 melanoma was found to be 22.5 µM; in the assay on COLO 205 colon, 12 µM; with MDA-N it was 8.42 µM; in the assay on SNB-75 CNS, 22.3 µM; in the assay on MDA-MB-231 breast it was 7.56 µM; with HT29 colon, 3.66 µM. The TGI in the assay on OVCAR-3 ovarian turned out to be 17.1 µM; in the assay with KM12 colon it was 3.35 µM; with MDA-MB-435, 16.8 µM; in the assay on OVCAR-8 ovarian it was 31 µM.

These data come from PubChem BioAssay (NCI).
